How the values were obtained:
M-HeLa [1] = assay: Antiproliferative activity against human M-HeLa cells assessed as reduction in cell viability after 24 hrs by DAPI/propidium iodide staining based assay; type: functional
[2] = Cytotoxicity against human Chang liver cells assessed as reduction in cell viability after 24 hrs by DAPI/propidium iodide staining based assay
MCF7 = assay: Antiproliferative activity against human MCF7cells assessed as reduction in cell viability after 24 hrs by DAPI/propidium iodide staining based assay; type: functional; settings: MCF7, 24 h
M-HeLa [3] = assay: Induction of apoptosis in human M-HeLa cells assessed as viable cells at 25 uM after 24 hrs by annexin V-FITC/PIstaining based flow cytometric analysis (reference value: 93.33%); type: functional; settings: read-out: Activity
M-HeLa [4] = assay: Induction of mitochondrial membrane potential loss in human M-HeLa cells assessed as intact mitochondrial membrane potential at 10 uM after 24 hrs by Jc-10 dye based flow cytometric analysis (reference value: 77.48%); type: functional
M-HeLa [5] = assay: Induction of apoptosis in human M-HeLa cells assessed as late apoptotic cells at 10 uM after 24 hrs by annexin V-FITC/PIstaining based flow cytometric analysis (reference value: 0.62%); type: functional
[6] = Hemolytic activity in human Erythrocytes at 100 +/- 7.8 uM relative to control; type: ADME, cell-based, Erythrocyte; settings: read-out: Activity
M-HeLa [7] = assay: Induction of apoptosis in human M-HeLa cells assessed as necrotic cells at 25 uM after 24 hrs by annexin V-FITC/PIstaining based flow cytometric analysis (reference value: […]); type: functional
M-HeLa [8] = assay: Induction of apoptosis in human M-HeLa cells assessed as early apoptotic cells at 10 uM after 24 hrs by annexin V-FITC/PIstaining based flow cytometric analysis (reference value: 1.5%); type: functional
M-HeLa [9] = assay: Induction of apoptosis in human M-HeLa cells assessed as viable cells at 10 uM after 24 hrs by annexin V-FITC/PIstaining based flow cytometric analysis (reference value: 93.33%); type: functional; settings: read-out: Activity
M-HeLa [10] = assay: Induction of mitochondrial membrane potential loss in human M-HeLa cells assessed as intact mitochondrial membrane potential at 25 uM after 24 hrs by Jc-10 dye based flow cytometric analysis (reference value: 77.48%); type: functional
M-HeLa [11] = assay: Induction of apoptosis in human M-HeLa cells assessed as early apoptotic cells at 25 uM after 24 hrs by annexin V-FITC/PIstaining based flow cytometric analysis (reference value: 1.5%); type: functional
[12] = Hemolytic activity in human Erythrocytes at 50 +/- 0.8 uM relative to control; type: ADME, cell-based, Erythrocyte; settings: read-out: Activity
M-HeLa [13] = assay: Induction of apoptosis in human M-HeLa cells assessed as late apoptotic cells at 25 uM after 24 hrs by annexin V-FITC/PIstaining based flow cytometric analysis (reference value: 0.62%); type: functional
M-HeLa [14] = assay: Induction of mitochondrial membrane potential loss in human M-HeLa cells assessed as collapsed mitochondrial membrane potential at 10 uM after 24 hrs by Jc-10 dye based flow cytometric analysis (reference value: 22.17%); type: functional
[15] = Hemolytic activity in human Erythrocytes at 10 +/- 0.8 uM relative to control; type: ADME, cell-based, Erythrocyte; settings: read-out: Activity
M-HeLa [16] = assay: Induction of mitochondrial membrane potential loss in human M-HeLa cells assessed as collapsed mitochondrial membrane potential at 25 uM after 24 hrs by Jc-10 dye based flow cytometric analysis (reference value: 22.17%); type: functional
M-HeLa [17] = assay: Induction of apoptosis in human M-HeLa cells assessed as necrotic cells at 10 uM after 24 hrs by annexin V-FITC/PIstaining based flow cytometric analysis (reference value: […]); type: functional

Compound | IC50 (M-HeLa [1]) [µM] | IC50 (MCF7) [µM] | IC50 [2] [µM] | also measured
CC(=O)OC[C@H]1O[C@@H](OC(=O)[C@]2(C)CCC[C@@]3(C)[C@@H]4CC[C@@]5(C)C[C@]4(CC[C@@H]32)CC5=O)[C@H](OC(C)=O)[C@@H](OC(C)=O)[C@H]1OC(C)=O | > 100 | > 100 | > 100 | –
C[C@@]12CC[C@@H]3[C@@](CC[C@H]4[C@@]3(C)CCC[C@@]4(C)C(=O)O[C@@H]3O[C@H](CO)[C@H](O)[C@H](O)[C@H]3O)(CC1=O)C2 | 52 | 29 | 58 | –
CC(=O)OC[C@H]1O[C@@H](OC(=O)[C@]2(C)CCC[C@@]3(C)[C@@H]4CC[C@@]5(C)C[C@]4(CC[C@@H]32)CC5=O)[C@H](OC(C)=O)[C@@H](OC(C)=O)[C@@H]1OC(C)=O | > 100 | > 100 | > 100 | –
CC/C(=C(\c1ccccc1)c1ccc(OCCN(C)C)cc1)c1ccccc1 [TAMOXIFEN] | – | – | 46 | –
CC(=O)N[C@H]1[C@H](OC(=O)[C@]2(C)CCC[C@@]3(C)[C@@H]4CC[C@@]5(C)C[C@]4(CC[C@@H]32)CC5=O)O[C@H](CO)[C@@H](O)[C@@H]1O | > 100 | > 100 | > 100 | –
C[C@@]12CC[C@@H]3[C@@](CC[C@H]4[C@@]3(C)CCC[C@@]4(C)C(=O)O[C@H]3O[C@H](CO)[C@@H](O)[C@H](O)[C@@H]3O)(CC1=O)C2 | > 100 | > 100 | > 100 | –
C[C@@]12CC[C@@H]3[C@@](CC[C@H]4[C@@]3(C)CCC[C@@]4(C)C(=O)O[C@@H]3O[C@H](C(=O)NN)[C@@H](O)[C@H](O)[C@H]3O)(C/C1=N\N)C2 | > 100 | > 100 | > 100 | –
CC(=O)N[C@H]1[C@H](OC(=O)CCCCCCCCCOC(=O)[C@]2(C)CCC[C@@]3(C)[C@@H]4CC[C@@]5(C)C[C@]4(CC[C@@H]32)CC5=O)O[C@H](COC(C)=O)[C@@H](OC(C)=O)[C@@H]1OC(C)=O | > 100 | 64.9 | > 100 | –

Continued by falling IC50 (M-HeLa [1]), values first:

IC50 (M-HeLa [1]) [µM] | IC50 (MCF7) [µM] | Compound | IC50 [2] [µM] | also measured
46 | > 100 | CC(=O)N[C@H]1[C@H](OC(=O)CCCCCOC(=O)[C@]2(C)CCC[C@@]3(C)[C@@H]4CC[C@@]5(C)C[C@]4(CC[C@@H]32)CC5=O)O[C@H](COC(C)=O)[C@@H](OC(C)=O)[C@@H]1OC(C)=O | 51.2 | –
32 | > 100 | C[C@@]12CC[C@@H]3[C@@](CC[C@H]4[C@@]3(C)CCC[C@@]4(C)C(=O)O[C@@H]3O[C@H](CO)[C@@H](O)[C@H](O)[C@H]3O)(CC1=O)C2 | > 100 | –
27 | 33.2 | CC(=O)OC[C@H]1O[C@@H](OC(=O)CCCCCCCCCOC(=O)[C@]2(C)CCC[C@@]3(C)[C@@H]4CC[C@@]5(C)C[C@]4(CC[C@@H]32)CC5=O)[C@H](OC(C)=O)[C@@H](OC(C)=O)[C@H]1OC(C)=O | > 100 | –
26 | 65 | COC(=O)[C@H]1O[C@@H](OC(=O)[C@]2(C)CCC[C@@]3(C)[C@@H]4CC[C@@]5(C)C[C@]4(CC[C@@H]32)CC5=O)[C@H](OC(C)=O)[C@@H](OC(C)=O)[C@@H]1OC(C)=O | > 100 | –
18 | 31 | CC(=O)OC[C@H]1O[C@H](OC(=O)CCCCCCCCCOC(=O)[C@]2(C)CCC[C@@]3(C)[C@@H]4CC[C@@]5(C)C[C@]4(CC[C@@H]32)CC5=O)[C@@H](OC(C)=O)[C@@H](OC(C)=O)[C@@H]1OC(C)=O | > 100 | –
18 | 36 | CC(=O)N[C@H]1[C@H](OC(=O)[C@]2(C)CCC[C@@]3(C)[C@@H]4CC[C@@]5(C)C[C@]4(CC[C@@H]32)CC5=O)O[C@H](COC(C)=O)[C@@H](OC(C)=O)[C@@H]1OC(C)=O | 86 | –
15.1 | 29.3 | CC(=O)OC[C@H]1O[C@H](OC(=O)[C@]2(C)CCC[C@@]3(C)[C@@H]4CC[C@@]5(C)C[C@]4(CC[C@@H]32)CC5=O)[C@@H](OC(C)=O)[C@@H](OC(C)=O)[C@@H]1OC(C)=O | > 100 | viability at 25 µM (M-HeLa [3]): 73.7%; Activity (M-HeLa [4]): 28.67%; Activity (M-HeLa [5]): 7.25%; hemolysis at 100 uM [6]: 0%; Activity (M-HeLa [7]): 0.28%; Activity (M-HeLa [8]): 3.02%; viability at 10 µM (M-HeLa [9]): 85.8%; Activity (M-HeLa [10]): 7.74%; Activity (M-HeLa [11]): 13.12%; hemolysis at 50 uM [12]: 0%; Activity (M-HeLa [13]): 12.97%; Activity (M-HeLa [14]): 70.85%; hemolysis at 10 uM [15]: 0%; Activity (M-HeLa [16]): 92.26%; Activity (M-HeLa [17]): 3.98%
11 | 63.2 | CC(=O)OC[C@H]1O[C@H](OC(=O)CCCCCOC(=O)[C@]2(C)CCC[C@@]3(C)[C@@H]4CC[C@@]5(C)C[C@]4(CC[C@@H]32)CC5=O)[C@@H](OC(C)=O)[C@@H](OC(C)=O)[C@@H]1OC(C)=O | > 100 | viability at 25 µM (M-HeLa [3]): 84.3%; Activity (M-HeLa [4]): 8.98%; Activity (M-HeLa [5]): 5.59%; hemolysis at 100 uM [6]: 5.5%; Activity (M-HeLa [7]): 0.05%; Activity (M-HeLa [8]): 7.57%; viability at 10 µM (M-HeLa [9]): 86.6%; Activity (M-HeLa [10]): 10.64%; Activity (M-HeLa [11]): 10.59%; hemolysis at 50 uM [12]: 1.7%; Activity (M-HeLa [13]): 5.02%; Activity (M-HeLa [14]): 90.91%; hemolysis at 10 uM [15]: 0%; Activity (M-HeLa [16]): 89.29%; Activity (M-HeLa [17]): 0.22%
10 | 32.1 | CC(=O)OC[C@H]1O[C@@H](OC(=O)CCCCCOC(=O)[C@]2(C)CCC[C@@]3(C)[C@@H]4CC[C@@]5(C)C[C@]4(CC[C@@H]32)CC5=O)[C@H](OC(C)=O)[C@@H](OC(C)=O)[C@H]1OC(C)=O | > 100 | viability at 25 µM (M-HeLa [3]): 37.3%; Activity (M-HeLa [4]): 55.78%; Activity (M-HeLa [5]): 7.61%; hemolysis at 100 uM [6]: 0%; Activity (M-HeLa [7]): 8.9%; Activity (M-HeLa [8]): 34.78%; viability at 10 µM (M-HeLa [9]): 52.1%; Activity (M-HeLa [10]): 11.53%; Activity (M-HeLa [11]): 39.77%; hemolysis at 50 uM [12]: 0%; Activity (M-HeLa [13]): 13.98%; Activity (M-HeLa [14]): 44.17%; hemolysis at 10 uM [15]: 0%; Activity (M-HeLa [16]): 88.38%; Activity (M-HeLa [17]): 5.49%

Reference: ChEMBL document CHEMBL4373667, “Synthesis and anti-cancer activities of glycosides and glycoconjugates of diterpenoid isosteviol” (Medchemcomm, 2019)
